Results: US7119206B2, “Derivative of dihydro-dibenzo (a) anthracenes and their use as selective estrogen receptor modulators” (Eli Lilly and Company, priority 2002, dated 2006)

Legend:
[1] = molecular target: T1, ERAlpha receptor (Homo sapiens, UniProt P03372); experiment: ER alpha competition binding assay (3H-Estradiol); settings: 3H-Estradiol competition; IC50 converted to Ki using Cheng-Prusoff; read-out: ER binding Ki (ERα)
T1 construct: purchased PanVera
T1 sequence (P03372 1-595): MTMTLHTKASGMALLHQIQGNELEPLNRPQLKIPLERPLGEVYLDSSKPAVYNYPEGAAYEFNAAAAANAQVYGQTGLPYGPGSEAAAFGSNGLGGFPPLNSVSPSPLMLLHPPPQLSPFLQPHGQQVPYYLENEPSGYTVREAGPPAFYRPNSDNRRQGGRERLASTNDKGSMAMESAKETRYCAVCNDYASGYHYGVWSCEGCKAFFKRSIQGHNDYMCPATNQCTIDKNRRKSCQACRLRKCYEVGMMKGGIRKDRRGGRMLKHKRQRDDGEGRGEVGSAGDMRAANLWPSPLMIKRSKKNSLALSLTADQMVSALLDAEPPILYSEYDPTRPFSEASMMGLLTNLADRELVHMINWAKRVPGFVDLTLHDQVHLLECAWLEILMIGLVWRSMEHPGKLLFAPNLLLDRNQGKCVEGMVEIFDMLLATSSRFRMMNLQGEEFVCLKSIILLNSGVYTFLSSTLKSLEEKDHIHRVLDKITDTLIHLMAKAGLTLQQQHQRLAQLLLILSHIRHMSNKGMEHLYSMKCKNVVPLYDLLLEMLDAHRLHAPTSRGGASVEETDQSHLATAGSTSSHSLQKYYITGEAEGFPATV
Experimental: (§1) Competition binding assay is run in a buffer containing 50 mM Hepes, pH 7.5, 1.5 mM EDTA, 150 mM NaCl, 10% glycerol, 1 mg/ml ovalbumin and 5 mM DTT, using 0.025 μCi per well ^3H-Estradiol(NEN #NET517 at 118 Ci/mmol, 1 mCi/ml), 10 ng/well ERAlpha or ERbeta receptor (PanVera). Competing compounds are added at 10 different concentrations. Non-specific binding is determined in the presence of 1 μM of 17-B Estradiol. The binding reaction (140 μl) is incubated for 4 hours at room temperature, then 70 μl of cold DCC buffer is added to each reaction (DCC buffer contains per 50 ml of assay buffer, 0.75 g of charcoal (Sigma) and 0.25 g of dextran (Pharmacia)). Plates are mixed 8 minutes on an orbital shaker at 4° C. Plates are then centrifuged at 3,000 rpm at 4° C. for 10 minutes. An aliquot of 120 μl of the mix is transferred to another 96-well, white flat bottom plate (Costar) and 175 μl of Wallac Optiphase “Hisafe 3” scintillation fluid is added to each well. Plates are sealed and shaken vigorously on an orbital shaker. After an incubation of 2.5 hrs, read plates in a Wallac Microbeta counter. […] The Kd for ^3H-Estradiol is determined by saturation binding to ER alpha and ER beta receptors. The IC50 values for compounds are converted to Ki using Cheng-Prusoff equation and the Kd determined by saturation binding assay.

[2] = test system: Ishikawa human endometrial tumor cells; experiment: Ishikawa cell assay (PNPP readout), agonist mode; assay type: cell-based; settings: Homo sapiens, Ishikawa; for Emax: % efficacy versus the response to Tamoxifen, read-out: Ishikawa Agonist % Eff
Source text: (§2) Ishikawa human endometrial tumor cells are maintained in MEM (minimum essential medium, with Earle's salts and L-Glutamine, Gibco BRL, Gaithersburg, Md.), supplemented with 10% fetal bovine serum (FBS) (V/V), (Gibco BRL). One day prior to assay, growth media is changed to assay medium, DMEM/F-12 (3:1) (Dulbecco's Modified Eagle Medium: Nutrient Mixture F-12, 3:1 Mixture, phenol red-free, Gibco BRL) supplemented with 5% dextran coated charcoal stripped fetal bovine serum (DCC-FBS) (Hyclone, Logen, Utah), L-Glutamine (2 mM), MEM sodium pyruvate (1 mM), HEPES (N-[2-hydroxyethyl]piperazine-N′-[2-ethanesulfonic acid] 2 mM) all from Gibco BRL). After an overnight incubation, ishikawa cells are rinsed with Dulbecco's Phosphate Buffered Saline (1×) (D-PBS) without Ca^+2 and Mg^+2 (Gibco BRL), and trypsinized by a 3 minute incubation with 0.25% Trypsin/EDTA, phenol red-free (Gibco BRL). Cells are resuspended in assay medium and adjusted to 250,000 cells/ml. Approximately 25,000 cells in a 100 ul media are added to flat-bottom 96 wells microculture plates (Costar 3596) and incubated at 37° C. in a 5% CO2 humidified incubator for 24 hours. The next day, serial dilutions of compounds are prepared in assay medium (at 6 times the final concentration in the assay). The assay is run in dual mode, agonist and antagonist modes. For the agonist mode, plates receive 25 μl/well of assay medium followed by 25 μl/well of diluted compounds (at 6× the final concentrations). For the antagonist mode, plates receive 25 μl/well of 6 nM E2 (β-Estradiol, Sigma, St. Louis, Mo.) followed by 25 μl/well of diluted compounds (at 6× the final concentrations). After an additional 48-hour incubation at 37° C. in a 5% CO2 humidified incubator, media is aspirated from wells and 100 μl fresh assay medium is added to each microculture. Serial dilutions of compounds are prepared and added to the cells as described above. After an additional 72 hour incubation at 37° C. in a 5% CO2 humidified incubator, the assay is quenched by removing media and rinsing plates twice in Dulbecco's Phosphate Buffered Saline (1×) (D-PBS) (Gibco BRL). The plates are dried for 5 min and frozen at −70° C. for at least 1 hour. The plates are then removed from the freezer and allowed to thaw at room temperature. To each well, 100 μl of 1-Step™ PNPP (Pierce Chemical Company, Rockford, Ill.) is added. After a 20-minute incubation, plates are read on a spectophotometer at 405 nm. The data is fitted to a linear interpolation to derive EC50 (for agonist mode) or IC50 (for antagonist mode) values. For the agonist mode, a % efficacy for each compound is calculated versus the response to Tamoxifen. For the antagonist mode, a % efficacy for each compound is calculated versus E2 (1 nM) alone.

[3] = test system: MCF-7 breast adenocarcinoma cells; experiment: MCF-7 proliferation assay (14C-thymidine), antagonist mode; assay type: cell-based; settings: Homo sapiens, MCF7, antagonist mode, with 10 pM E2
Experimental: MCF-7 breast adenocarcinoma cells (ATCC HTB 22) are maintained in MEM (minimal essential medium, phenol red-free, Gibco BRL) supplemented with 10% fetal bovine serum (FBS) (V/V), L-glutamine (2 mM), sodium pyruvate (1 mM), HEPES ((N-[2-hydroxyethyl]piperazine-N′-[2-ethanesulfonic acid]10 mM}, non-essential amino acids(0.1 mM)and Penicillin Streptomycin(1×). Seven days prior to assay, MCF-7 cells are switched to assay media which is the same as maintenance medium except supplemented with 10% dextran-coated charcoal-stripped fetal bovine serum (DCC-FBS) assay medium in place of 10% FBS. MCF-7 cells are removed from flasks using 10× Trypsin EDTA (phenol red free, Gibco BRL) and diluted to 1× in (Ca++/Mg++ free HBSS (phenol red-free). Cells are adjusted to 80,000 cells/ml in assay medium. Approximately 8,000 cells (100 μl) are added to each well in 96 well Cytostar T scintillation plates (Amersham) and incubated at 37° C. in a 5% CO2 humidified incubator for 24 hours to allow cell adherence and equilibration after transfer. Serial dilutions of drugs are prepared in assay medium at 4× the final desired concentration). A 50 μl aliquot of drug dilutions (at 4× the final assay concentration) is transferred to duplicate wells followed by 50 μl assay medium for the agonist mode or 50 μl of 40 pM of E2 for the antagonist mode to a final volume of 200 μl. For each of the agonist plates, a basal level (media) and a maximum stimulated level (with 1 μM E2) is determined. For each of the antagonist plates, a basal level (media) and a E2 (10 pM) alone control is determined. After an additional 48 hours at 37° C. in a 5% CO2 humidified incubator, 20 μl of assay medium containing 0.01 μCi of ^14C-thymidine (52 mCi/mmol, […], Amersham) is added to each well. The plates are incubated overnight in the same incubator and then counted on the Wallac Microbeta counter. […] For the agonist mode, an EC50 and percent of maximum E2 stimulation and concentration of maximum stimulation is calculated.

[4] = test system: Ishikawa human endometrial tumor cells; experiment: Ishikawa cell assay (PNPP readout), antagonist mode; assay type: cell-based; settings: with 1 nM E2
Source text: as §2

[5] = molecular target: T2, ERbeta receptor (Homo sapiens, UniProt Q92731); experiment: ER beta competition binding assay (3H-Estradiol); settings: 3H-Estradiol competition; IC50 converted to Ki using Cheng-Prusoff; read-out: ER binding Ki (ERβ)
T2 construct: purchased PanVera
Experimental: as §1

T2 sequence (Q92731 whole entry): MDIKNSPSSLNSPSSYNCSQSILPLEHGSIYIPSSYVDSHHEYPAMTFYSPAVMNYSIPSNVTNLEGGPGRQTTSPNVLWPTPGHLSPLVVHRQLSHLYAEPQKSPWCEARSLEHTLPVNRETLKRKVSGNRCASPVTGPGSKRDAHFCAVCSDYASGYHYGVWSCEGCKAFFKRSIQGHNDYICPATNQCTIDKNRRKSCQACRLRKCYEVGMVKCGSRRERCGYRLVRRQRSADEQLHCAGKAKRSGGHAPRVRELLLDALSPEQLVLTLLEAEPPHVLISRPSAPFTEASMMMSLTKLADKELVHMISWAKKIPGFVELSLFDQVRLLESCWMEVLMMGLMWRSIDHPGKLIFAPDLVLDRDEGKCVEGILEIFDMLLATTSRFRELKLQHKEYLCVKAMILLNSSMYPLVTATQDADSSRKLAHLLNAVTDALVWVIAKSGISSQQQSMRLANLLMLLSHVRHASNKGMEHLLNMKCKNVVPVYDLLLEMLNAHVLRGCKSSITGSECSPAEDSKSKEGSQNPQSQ

Ki [1] [nM] | EC50 [2] [nM] | IC50 [3] [nM] | IC50 [4] [nM] | Ki [5] [nM] | Compound | Emax [2] [%]
1 | 3 | 7 | 130 | 3 | Oc1ccc2c(c1)C(c1ccc(OCCN3CCCCC3)cc1)c1c(ccc3cc(O)ccc13)C2 (stereo not drawn) [Example 8, 12-[4-(2-Piperidin-1-yl-ethoxy)-phenyl]-7,12-dihydro-benzo[a]anthracene-3,10-diol] | 75
8 | 28 | 68 | 582 | 40 | Oc1ccc2c3c(ccc2c1)Cc1cccc(O)c1C3c1ccc(OCCN2CCCCC2)cc1 (stereo not drawn) [Example 12, 12-[4-(2-Piperidin-1-yl-ethoxy)-phenyl]-7,12-dihydro-benzo[a]anthracene-3,11-diol] | 77
1 | 1 | 3 | 50 | 5 | Oc1ccc2c3c(ccc2c1)Cc1c(O)cccc1C3c1ccc(OCCN2CCCCC2)cc1 (stereo not drawn) [Example 13, 12-[4-(2-Piperidin-1-yl-ethoxy)-phenyl]-7,12-dihydro-benzo[a]anthracene-3,8-diol] | 121
